According to the supplement of paper PMC5908809:

Assays:
YT (IL-2 2.5 ng/mL) [1] = experiment: drug sensitivity score (DSS) (DSS units); higher = more sensitive; extreme values may be limits of the assay; settings: 72 h
[2] = system: normal primary NK cells, pool 1 (3 donors) (IL-2 2.5 ng/mL); experiment: as above; settings: 72 h
DERL-7 (IL-2 2.5 ng/mL) [3] = experiment: as above; settings: 72 h
[4] = system: normal primary NK cells, pool 3 (3 donors) (IL-2 2.5 ng/mL); experiment: as above; settings: 72 h
IMC-1 (IL-2 20 ng/mL) [5] = experiment: as above; settings: 72 h
[6] = system: normal primary NK cells, pool 2 (3 donors) (IL-2 2.5 ng/mL); experiment: as above; settings: 72 h
KAI3 (IL-2 2.5 ng/mL) [7] = experiment: as above; settings: 72 h
NK-92 (IL-2 2.5 ng/mL) [8] = experiment: as above; settings: 72 h
NKL (IL-2 2.5 ng/mL) [9] = experiment: as above; settings: 72 h
[10] = system: normal primary NK cells, pool 1 (3 donors), resting (IL-2 0 ng/mL); experiment: as above; settings: 72 h
SNK-6 (IL-2 2.5 ng/mL) [11] = experiment: as above; settings: 72 h
KHYG-1 (IL-2 2.5 ng/mL) [12] = experiment: as above; settings: 72 h
NK-YS (IL-2 2.5 ng/mL) [13] = experiment: as above; settings: 72 h
YT (IL-2 2.5 ng/mL) [14] = experiment: percent inhibition of viability; higher = more inhibition; settings: 72 h
[15] = system: normal primary NK cells, pool 1 (3 donors) (IL-2 2.5 ng/mL); experiment: as above; settings: 72 h
DERL-7 (IL-2 2.5 ng/mL) [16] = experiment: as above; settings: 72 h
[17] = system: normal primary NK cells, pool 3 (3 donors) (IL-2 2.5 ng/mL); experiment: as above; settings: 72 h
IMC-1 (IL-2 20 ng/mL) [18] = experiment: as above; settings: 72 h
[19] = system: normal primary NK cells, pool 2 (3 donors) (IL-2 2.5 ng/mL); experiment: as above; settings: 72 h
KAI3 (IL-2 2.5 ng/mL) [20] = experiment: as above; settings: 72 h
NK-92 (IL-2 2.5 ng/mL) [21] = experiment: as above; settings: 72 h
NKL (IL-2 2.5 ng/mL) [22] = experiment: as above; settings: 72 h
[23] = system: normal primary NK cells, pool 1 (3 donors), resting (IL-2 0 ng/mL); experiment: as above; settings: 72 h
SNK-6 (IL-2 2.5 ng/mL) [24] = experiment: as above; settings: 72 h
KHYG-1 (IL-2 2.5 ng/mL) [25] = experiment: as above; settings: 72 h
NK-YS (IL-2 2.5 ng/mL) [26] = experiment: as above; settings: 72 h
[27] = system: normal NK cells expanded with K562-aAPC; experiment: as above; settings: 72 h, IL-2 2.5 ng/mL
Method: (§1)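 Drug sensitivity and resistance testing on K562-aAPC-expanded normal NK cells: 5 concentrations (10-fold steps over a 10,000-fold range), 72 h at 37 °C, viability by CellTiter-Glo normalised to DMSO and benzethonium chloride controls; DSS from the fitted curve.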

[28] = system: normal NK cells expanded with K562-aAPC; experiment: drug sensitivity score (DSS) (DSS units); higher = more sensitive; extreme values may be limits of the assay; settings: 72 h; IL-2 2.5 ng/mL
Method: as §1

O=C1NC(=O)[C@@H](c2cn3c4c(cccc24)CCC3)[C@@H]1c1c[nH]c2ccccc12 [Tivantinib] (max concentration tested 1000 nM)
Settings | drug sensitivity score
DERL-7 (IL-2 2.5 ng/mL) [3] | 5.07
IMC-1 (IL-2 20 ng/mL) [5] | 5.57
KAI3 (IL-2 2.5 ng/mL) [7] | 4.63
KHYG-1 (IL-2 2.5 ng/mL) [12] | 7.4
NK-92 (IL-2 2.5 ng/mL) [8] | 10.4
NK-YS (IL-2 2.5 ng/mL) [13] | 7.74
NKL (IL-2 2.5 ng/mL) [9] | 4.03
SNK-6 (IL-2 2.5 ng/mL) [11] | 12.9
YT (IL-2 2.5 ng/mL) [1] | 6.61
[2] | 0
[4] | 1
[6] | 2.26
[10] | 0
[28] | 4.27

percent inhibition of viability [%]
Settings | 0.1 nM | 1 nM | 10 nM | 100 nM | 1000 nM
DERL-7 (IL-2 2.5 ng/mL) [16] | 1.35 | 4.31 | 5.17 | -5.73 | 98.9
IMC-1 (IL-2 20 ng/mL) [18] | -2.06 | -7.71 | 1.1 | 0.97 | 97.6
KAI3 (IL-2 2.5 ng/mL) [20] | -4.06 | 0.6 | 3.77 | 11.4 | 52.4
KHYG-1 (IL-2 2.5 ng/mL) [25] | 0.89 | -0.35 | 5.11 | 11.5 | 99.1
NK-92 (IL-2 2.5 ng/mL) [21] | -9.63 | -0.01 | -3.88 | 39 | 94.7
NK-YS (IL-2 2.5 ng/mL) [26] | 0.78 | -2.63 | 4.33 | 31.1 | 73.6
NKL (IL-2 2.5 ng/mL) [22] | -20.3 | -13.1 | -9.15 | -9.89 | 84.3
SNK-6 (IL-2 2.5 ng/mL) [24] | 9.19 | 0.24 | 0.91 | 70.4 | 83.3
YT (IL-2 2.5 ng/mL) [14] | -0.05 | -2.14 | 2.38 | 8.83 | 93.5
[15] | -0.92 | 0.64 | -7.52 | -8.4 | 6.83
[17] | -12.8 | -3.79 | -11.9 | 5.81 | 17.4
[19] | -7.65 | -12.3 | -6.73 | 13.4 | 23.2
[23] | -0.8 | 10.8 | 3.09 | 6.28 | 8.64
[27] | 4.66 | 1 | 5.6 | 5.87 | 61
